Where two headings read alike, the source gives them in different places.
How the values were obtained:
[1] = Ex vivo radiometabolite analysis in mouse blood and urine (radio-TLC, radio-HPLC); conditions: for radiotracer intact in blood and urine: 60 min post injection, ex vivo
Procedure: After tracer injection, CO2 asphyxiation, and cervical dislocation, blood was collected from a cardiac puncture into a tube containing 2 μL of 1% heparin (diluted from 5100 IU/mL) in 0.9% NaCl (aq.). The sample was centrifuged (1000g, 10 min) to separate the plasma from the blood cells. Cold acetonitrile (2 × vol of plasma) was added and centrifuged (10,000g for 5 min) to precipitate the proteins. A sample (100 μL) of the supernatant was injected into HPLC for radio-HPLC analysis. For the tracer [^18F]14, the supernatant was sampled also on TLC for digital autoradiography analysis.
Whole blood from mice were extracted during ex vivo studies, using cardiac puncture. The sample was applied in a microtube containing 1% heparin solution in 0.9% NaCl (aq.) (2 μL); the sample was centrifuged (1000g, 10 min), the total radioactivity in the sample was measured with a γ counter, the supernatant was separated from the pellet (RBC containing fraction), and cold ACN (500 μL) was added. The sample was centrifuged (10,000g, 5 min) to remove the free fraction from the precipitated protein-containing pellet. The pellet (protein-bound fraction) and the supernatant (free fraction) were measured with a γ counter, and a sample (100 μL) was injected into HPLC and spotted (4 μL) on a TLC plate (radio-TLC, TLC silica gel 60 F254, ACN/water 80:20).
Figure S26. Ex vivo stability of [18F]AmBF3-PEG4-TOC ([18F]14) in AR42J tumor bearing mouse blood 5 and 30 minutes post-injection (Radio-TLC). […]
retardation factor (Rf) of Rf = 40 mm. At 30 minutes post-injection the radiometabolite at 40 mm had disappeared and instead a highly polar metabolite (2.8%) at 4.0 mm was visible, and was accompanied by another metabolite (2.0%) eluting in the immediate vicinity of [18F]14 at Rf = 58 mm. At 60 minutes post-injection the tracer accounted for ≥99% of the radioactivity both in blood and urine (ex vivo). […]
(1 picture or pasted object on this page, not shown here)

[2] = PET/CT imaging of [18F]15; assay type: in vivo, Rj:NMRI-Foxn1^nu/nu mice; conditions: Rj:NMRI-Foxn1^nu/nu, mouse, subcutaneous AR42J tumor, iv, 0.2 nmol, total radioactivity; for SUV at 25 min: 25 min post injection; for SUV at 1.5 h: 90 min post injection
Procedure: (§1) [^18F]6 in 10% ethanol–0.01 M PBS was administered intravenously to male Fox Chase SCID mice (CB.17 SCID) (11.0 ± 0.5 MBq, ∼11 nmol, ∼150 μL, n = 4) and healthy female C57BL/6JRj mice (11.3 ± 0.3 MBq, ∼11 nmol, ∼150 μL, n = 4) under 2% isoflurane anesthesia. The PET/CT image was acquired with Inveon PET/CT for 60 min followed by a 15 min static scan 4 h after injection of the tracer. The images of the dynamic scan were reconstructed to time frames 60 × 10, 10 × 60, 4 × 300, and 3 × 600 s. After the second PET imaging (t = 270 ± 1.9 min post injection, n = 4), the organs were harvested and the radioactivity in each tissue sample was measured with a γ-counter and reported as a percentage of injected dose per gram of tissue (% ID/g). [^18F]15 was formulated in 4% ethanol in 0.01 M PBS and administered intravenously (0.2 nmol, 0.80 ± 0.30 MBq; tracer: 150 μL; tracer + blocking dose: 200 μL) to AR42J tumor-bearing Rj:NMRI-Foxn1^nu/nu mice (n = 4) under 2% isoflurane anesthesia. PET/CT images were acquired with Molecubes PET (β-CUBE) coupled with a CT (X-CUBE) (MOLECUBES NV, Ghent, Belgium) with two mice being imaged at the same time under 2% isoflurane anesthesia. Images were reconstructed to time frames 30 × 10, 15 × 60, 4 × 300, and 5 × 600 s. Quantitative image analysis was done with Carimas software (v 2.10, Turku PET Centre, Turku, Finland). Spherical ROIs were hand-drawn based on anatomical CT data and PET signal for the desired organs. The results are presented as standardized uptake values (SUVs).
(§2) The standardized uptake values (SUVs) were determined from the PET image by drawing regions-of-interest (ROI) around selected organs (heart, liver, kidney, lung, muscle, urinary bladder) with Carimas software (version 2.10, Turku PET Centre, Turku, Finland ) and by measuring the ratio of radioactivity per unit volume of that ROI and normalized to the injected […]
dose. […]

subcutaneous AR42J tumor = test: PET/CT imaging of [18F]15; assay type: in vivo, Rj:NMRI-Foxn1^nu/nu mice; conditions: i.v., 0.2 nmol
Procedure: as §1, §2
dose. […]

[3] = 30 minutes post-injection, radio-TLC

Compound	slightly polar metabolite in blood (Rf = 40 mm) ([1]; 5 minutes post-injection, radio-TLC)	another metabolite in blood (Rf = 58 mm) [1, 3]	highly polar metabolite in blood (4.0 mm) [1, 3]	radiotracer intact in blood and urine [1]	radiotracer intact in blood and urine ([1]; listed as [18F]14)	SUV at 25 min ([2]; coadministration of octreotide, read-out: tumor SUV, blocked)	SUV at 25 min ([2]; read-out: tumor SUV, baseline)	SUV at 1.5 h ([2]; n = 2, coadministration of octreotide, read-out: tumor SUV, blocking)	SUV at 1.5 h ([2]; n = 2, read-out: tumor SUV, baseline)	time of peak radioactivity in tumor (TAC) (subcutaneous AR42J tumor)
C[C@@H](O)[C@@H]1NC(=O)[C@H](CCCCN)NC(=O)[C@@H](Cc2c[nH]c3ccccc23)NC(=O)[C@H](Cc2ccc(O)cc2)NC(=O)[C@@H](NC(=O)[C@@H](Cc2ccccc2)NC(=O)CCOCCOCCOCCOCCON=Cc2ccc(CNC(=O)OC3CCCc4cnnc(-c5ccc(CC(=O)NCC[N+](C)(C)C[B-](F)(F)F)cc5)c4CC3)cc2)CSSC[C@@H](C(=O)N[C@H](CO)[C@@H](C)O)NC1=O (stereo partly shown) [[^18F]14]	4%	2.0%	2.8%	approximately 99%	≥ 99%					
C[C@@H](O)[C@@H]1NC(=O)[C@H](CCCCN)NC(=O)[C@@H](Cc2c[nH]c3ccccc23)NC(=O)[C@H](Cc2ccc(O)cc2)NC(=O)[C@@H](NC(=O)[C@@H](Cc2ccccc2)NC(=O)CCOCCOCCOCCOCCON=Cc2ccc(C(=O)NCCOCCOCCOCCNC(=O)OC3CCCc4cnnc(-c5ccc(CC(=O)NCC[N+](C)(C)C[B-](F)(F)F)cc5)c4CC3)cc2)CSSC[C@@H](C(=O)N[C@H](CO)[C@@H](C)O)NC1=O (stereo partly shown) [[^18F]15]						0.76 ± 0.04 SUV	1.01 ± 0.07 SUV	0.76 ± 0.03 SUV	0.82 ± 0.14 SUV	20 to 30 min

Source: article PMC9305971, “Development of [^18F]AmBF3 Tetrazine for Radiolabeling of Peptides: Preclinical Evaluation and PET Imaging of [^18F]AmBF3-PEG7-Tyr^3-Octreotide in an AR42J Pancreatic Carcinoma Model” (Bioconjugate Chemistry, 2022)
